Assay results from article PMC10376064, “ABC Transporter C1 Prevents Dimethyl Fumarate from Targeting Alzheimer’s Disease” (Biology, 2023).

Target: T1, ABCC1 (Homo sapiens, UniProt P33527)
T1 construct: membrane preparation of ABCC1-expressing H69AR cells
Test: vanadate-sensitive ATPase stimulation in H69AR membranes; daunorubicin and rhodamine […] transport inhibition in H69AR cells
Format: cell-based

T1 sequence (P33527 whole entry): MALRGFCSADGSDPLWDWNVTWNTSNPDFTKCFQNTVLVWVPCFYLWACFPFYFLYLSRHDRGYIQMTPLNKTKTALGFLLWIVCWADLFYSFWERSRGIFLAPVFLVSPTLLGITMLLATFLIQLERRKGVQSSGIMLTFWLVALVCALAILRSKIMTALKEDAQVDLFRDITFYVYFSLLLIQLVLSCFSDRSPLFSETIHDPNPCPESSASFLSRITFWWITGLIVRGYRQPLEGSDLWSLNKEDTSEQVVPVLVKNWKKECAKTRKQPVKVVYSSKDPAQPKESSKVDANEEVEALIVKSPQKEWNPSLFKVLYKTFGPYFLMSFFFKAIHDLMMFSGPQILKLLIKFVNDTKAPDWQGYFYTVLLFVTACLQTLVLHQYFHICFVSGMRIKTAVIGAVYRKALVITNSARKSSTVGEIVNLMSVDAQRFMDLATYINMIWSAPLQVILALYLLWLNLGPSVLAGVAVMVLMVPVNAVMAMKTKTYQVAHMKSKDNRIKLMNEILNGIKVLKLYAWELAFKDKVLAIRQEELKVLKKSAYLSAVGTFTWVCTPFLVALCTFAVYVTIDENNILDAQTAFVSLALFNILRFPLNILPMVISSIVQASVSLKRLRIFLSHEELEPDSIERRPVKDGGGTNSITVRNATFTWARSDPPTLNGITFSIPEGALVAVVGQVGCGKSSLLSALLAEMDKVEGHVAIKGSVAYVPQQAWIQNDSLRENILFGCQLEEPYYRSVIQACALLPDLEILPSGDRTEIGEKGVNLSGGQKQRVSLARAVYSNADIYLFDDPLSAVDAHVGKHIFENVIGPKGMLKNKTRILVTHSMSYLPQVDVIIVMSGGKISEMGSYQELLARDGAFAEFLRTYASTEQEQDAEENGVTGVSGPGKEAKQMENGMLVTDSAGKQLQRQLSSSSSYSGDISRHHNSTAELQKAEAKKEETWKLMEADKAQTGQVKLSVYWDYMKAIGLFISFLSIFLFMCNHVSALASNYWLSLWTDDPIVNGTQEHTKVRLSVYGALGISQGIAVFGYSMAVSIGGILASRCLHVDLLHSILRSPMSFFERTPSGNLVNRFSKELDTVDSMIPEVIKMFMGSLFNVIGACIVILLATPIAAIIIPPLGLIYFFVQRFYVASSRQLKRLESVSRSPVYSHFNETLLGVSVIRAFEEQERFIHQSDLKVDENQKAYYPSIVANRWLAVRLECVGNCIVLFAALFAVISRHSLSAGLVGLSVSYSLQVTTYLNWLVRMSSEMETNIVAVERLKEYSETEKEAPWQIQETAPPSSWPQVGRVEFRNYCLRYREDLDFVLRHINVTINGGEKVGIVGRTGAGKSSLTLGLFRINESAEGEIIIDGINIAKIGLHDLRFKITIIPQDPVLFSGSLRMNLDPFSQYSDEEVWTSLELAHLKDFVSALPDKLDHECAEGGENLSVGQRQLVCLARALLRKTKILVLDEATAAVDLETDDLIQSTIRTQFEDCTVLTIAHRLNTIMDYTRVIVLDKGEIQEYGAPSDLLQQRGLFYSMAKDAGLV

COC(=O)CC(SC[C@H](NC(=O)CC[C@H](N)C(=O)O)C(=O)NCC(=O)O)C(=O)OC (stereo partly shown) [compound 9, DMS-SG]
vanadate-sensitive ATPase stimulation in H69AR membranes; daunorubicin and rhoda: ~ 200 µM
